In patent publication US11197903B2, “Composition containing a bean extract for improving blood circulation and vascular health and method for improving blood circulation and vascular health” (AMOREPACIFIC CORPORATION, priority 2009, dated 2021):

What was measured:
[1] = system: rats fed high-cholesterol diet; test: Serum and liver lipid levels in high-cholesterol diet animal model; assay type: in vivo, rat; conditions: 200 mg/kg orally, 4 weeks
Experimental: 8-week-old female rats weighing 250-300 g were kept in polycarbonate cages, 8 heads per cage, maintained at 22±2° C. and 55±15% relative humidity with 12/12-hr light/dark cycles. Normal diet or high-cholesterol diet was provided and water was given freely. Fenofibric acid (200 mg/kg) used for treatment of hyperlipidemia was suspended in 1% methyl cellulose (MC) and orally administered as a positive control. The seoritae extract (200 mg/kg) was orally administered once a day for 4 weeks. […] After the centrifugation, total cholesterol, LDL-cholesterol, HDL-cholesterol and triglyceride levels in the obtained serum were evaluated. The analysis was performed using an automated hematology analyzer and the Roche diagnostic kit. The result is shown in Table 17 (serum lipids) and Table 18 (liver lipids).

[2] = in vivo
Experimental: Bleeding time was compared for the cases where 20% ethanol seoritae extract, aspirin or clopidogrel was treated.

SMILES	Total cholesterol ([1]; liver)	Triglyceride ([1]; liver)	HDL-cholesterol ([1]; serum)	LDL-cholesterol ([1]; serum)	Total cholesterol ([1]; serum)	bleeding time (FIG. 18) [2]
CC(C)(Oc1ccc(C(=O)c2ccc(Cl)cc2)cc1)C(=O)O [Positive control, Fenofibric acid]	15.43 ± 0.52 µg/mg	185.39 ± 23.84 µg/mg	87.89 ± 6.84 mg/dL	75.34 ± 2.80 mg/dL	112.42 ± 13.33 mg/dL	
CC(=O)Oc1ccccc1C(=O)O [aspirin]						significant increase of bleeding time
COC(=O)[C@H](c1ccccc1Cl)N1CCc2sccc2C1 [clopidogrel]						significant increase of bleeding time
